Experimental findings from ChEMBL document CHEMBL2311426, “Synthesis and antibacterial activity of novel water-soluble nocathiacin analogs” (Bioorg Med Chem Lett, 2013) are described below.

The test system of data set [1] is Staphylococcus aureus. The data set can be described thus: Antibacterial activity against Staphylococcus aureus MB2865 infected in iv dosed mouse assessed as >= log10 cfu kidney burden reduction administered bid after 24 hrs. The format is functional.
Data set [2] deals with Staphylococcus aureus. The data set can be described thus: Antibacterial activity against Staphylococcus aureus MB2865 infected in mouse assessed as log kidney burden reduction administered at 4 mg/kg, iv bid after 24 hrs relative to control. The format is functional.
The next data set has as its system Enterococcus faecalis. The data set can be described thus: Antibacterial activity against Enterococcus faecalis C21560 by turbidity method. Format: functional. The note with it: read-out: MIC100.
Another data set has as its system Streptococcus pneumoniae. Nature of the data set: Antibacterial activity against Streptococcus pneumoniae CL2883 by turbidity method. Format: functional. As to conditions: read-out: MIC100.
In data set [3] the test system is Staphylococcus aureus. The data set can be described thus: Antibacterial activity against Staphylococcus aureus MB2865 by turbidity method. The note with it: read-out: MIC100. The format is functional.
Data set [4] relates to Staphylococcus aureus. Nature of the data set: Ratio of vancomycin ED99 to compound ED99 for Staphylococcus aureus MB2865 infected in iv dosed mouse. Format: functional.
Data set [5] can be described thus: Aqueous solubility of the compound in water containing 5% dextrose at pH 4. Format: physicochemical.

SMILES strings stand for the structures. ≈ marks a conversion by molar mass, not a printed value. Where only a bound is given, the exact number is not on record here.

In the case of `CO/C(C)=C1/NC(=O)[C@H]([C@@H](C)O)NC(=O)c2csc(n2)-c2cc(O)c(-c3nc(CNC(=O)CN4CCN(C)CC4)cs3)nc2-c2csc(n2)[C@@H]2COC(=O)c3c4c5c(cccc5n3O)COC(=O)[C@@H](O[C@H]3C[C@](C)(O)[C@H](N(C)C)[C@H](C)O3)[C@@H](OC4)[C@H](NC(=O)c3csc1n3)c1nc(cs1)C(=O)N2`, the ED99 in the data set on Staphylococcus aureus [1] was 0.28 mg/kg. Moreover, in the data set with Staphylococcus aureus [2], the CFU was 1.08. For the same compound, the MIC with Enterococcus faecalis came to 0.09 µg/mL (≈ 0.0602 µM); in the data set on Streptococcus pneumoniae it was 0.0007 µg/mL (≈ 0.000468 µM); in the data set with Staphylococcus aureus [3], 0.0375 µg/mL (≈ 0.0251 µM).

Regarding `CO/C(C)=C1/NC(=O)[C@H]([C@@H](C)O)NC(=O)c2csc(n2)-c2cc(O)c(-c3nc(CNC(=O)CN4CCOCC4)cs3)nc2-c2csc(n2)[C@@H]2COC(=O)c3c4c5c(cccc5n3O)COC(=O)[C@@H](O[C@H]3C[C@](C)(O)[C@H](N(C)C)[C@H](C)O3)[C@@H](OC4)[C@H](NC(=O)c3csc1n3)c1nc(cs1)C(=O)N2`, the ED99 in the data set with Staphylococcus aureus [1] was above 0.5 mg/kg. Moreover, the MIC was 0.015 µg/mL (≈ 0.0101 µM) with Enterococcus faecalis, 0.00046 µg/mL (≈ 0.00031 µM) with Streptococcus pneumoniae and 0.0075 µg/mL (≈ 0.00506 µM) in the data set with Staphylococcus aureus [3].

In the case of `CO/C(C)=C1/NC(=O)[C@H]([C@@H](C)O)NC(=O)c2csc(n2)-c2cc(O)c(-c3nc(CN(C)C)cs3)nc2-c2csc(n2)[C@@H]2COC(=O)c3c4c5c(cccc5n3O)COC(=O)[C@@H](O[C@H]3C[C@](C)(O)[C@H](N(C)C)[C@H](C)O3)[C@@H](OC4)[C@H](NC(=O)c3csc1n3)c1nc(cs1)C(=O)N2`, in the data set on Staphylococcus aureus [1], the ED99 is above 0.5 mg/kg. In addition, the results for the MIC in the data set on Enterococcus faecalis, with Streptococcus pneumoniae and in the data set with Staphylococcus aureus [3] were 0.0075 µg/mL (≈ 0.00542 µM), 0.00095 µg/mL (≈ 0.000687 µM) and 0.03 µg/mL (≈ 0.0217 µM), respectively.

On to `CO/C(C)=C1/NC(=O)[C@H]([C@@H](C)O)NC(=O)c2csc(n2)-c2cc(O)c(-c3nc(CNC(=O)CCN4CCOCC4)cs3)nc2-c2csc(n2)[C@@H]2COC(=O)c3c4c5c(cccc5n3O)COC(=O)[C@@H](O[C@H]3C[C@](C)(O)[C@H](N(C)C)[C@H](C)O3)[C@@H](OC4)[C@H](NC(=O)c3csc1n3)c1nc(cs1)C(=O)N2`, for which the ED99 in the data set with Staphylococcus aureus [1] was above 0.5 mg/kg. Further, the MIC with Enterococcus faecalis worked out at 0.12 µg/mL (≈ 0.0802 µM); in the data set on Streptococcus pneumoniae it was 0.0075 µg/mL (≈ 0.00501 µM); with Staphylococcus aureus [3], 0.06 µg/mL (≈ 0.0401 µM).

In the case of `CO/C(C)=C1/NC(=O)[C@H]([C@@H](C)O)NC(=O)c2csc(n2)-c2cc(O)c(-c3nc(CNCCO)cs3)nc2-c2csc(n2)[C@@H]2COC(=O)c3c4c5c(cccc5n3O)COC(=O)[C@@H](O[C@H]3C[C@](C)(O)[C@H](N(C)C)[C@H](C)O3)[C@@H](OC4)[C@H](NC(=O)c3csc1n3)c1nc(cs1)C(=O)N2`, in the data set with Staphylococcus aureus [1], the ED99 came out at 0.32 mg/kg. Besides, the values for the MIC in the data set with Enterococcus faecalis, in the data set on Streptococcus pneumoniae and in the data set with Staphylococcus aureus [3] were 0.06 µg/mL (≈ 0.0429 µM), 0.00046 µg/mL (≈ 0.000329 µM) and 0.03 µg/mL (≈ 0.0215 µM), respectively.

With `CO/C(C)=C1/NC(=O)[C@H]([C@@H](C)O)NC(=O)c2csc(n2)-c2cc(O)c(-c3nc(CN)cs3)nc2-c2csc(n2)[C@@H]2COC(=O)c3c4c5c(cccc5n3O)COC(=O)[C@@H](O[C@H]3C[C@](C)(O)[C@H](N(C)C)[C@H](C)O3)[C@@H](OC4)[C@H](NC(=O)c3csc1n3)c1nc(cs1)C(=O)N2`, in the data set with Staphylococcus aureus [1], the ED99 was above 0.5 mg/kg. Further, the MIC was determined as 0.06 µg/mL (≈ 0.0443 µM) with Enterococcus faecalis, 0.00047 µg/mL (≈ 0.000347 µM) in the data set with Streptococcus pneumoniae and 0.077 µg/mL (≈ 0.0568 µM) in the data set with Staphylococcus aureus [3].

In the case of `CO/C(C)=C1/NC(=O)[C@H]([C@@H](C)O)NC(=O)c2csc(n2)-c2cc(O)c(-c3nc(CNCc4cncnc4)cs3)nc2-c2csc(n2)[C@@H]2COC(=O)c3c4c5c(cccc5n3O)COC(=O)[C@@H](O[C@H]3C[C@](C)(O)[C@H](N(C)C)[C@H](C)O3)[C@@H](OC4)[C@H](NC(=O)c3csc1n3)c1nc(cs1)C(=O)N2`, the ED99 in the data set with Staphylococcus aureus [1] was found to be 0.13 mg/kg. Besides, the MIC with Enterococcus faecalis worked out at 0.03 µg/mL (≈ 0.0207 µM); in the data set with Streptococcus pneumoniae, 0.0007 µg/mL (≈ 0.000484 µM); in the data set with Staphylococcus aureus [3], 0.0225 µg/mL (≈ 0.0156 µM).

Regarding `CN[C@H](CC(C)C)C(=O)N[C@H]1C(=O)N[C@@H](CC(N)=O)C(=O)N[C@H]2C(=O)N[C@H]3C(=O)N[C@H](C(=O)N[C@H](C(=O)O)c4cc(O)cc(O)c4-c4cc3ccc4O)[C@H](O)c3ccc(c(Cl)c3)Oc3cc2cc(c3O[C@@H]2O[C@H](CO)[C@@H](O)[C@H](O)[C@H]2O[C@H]2C[C@](C)(N)[C@H](O)[C@H](C)O2)Oc2ccc(cc2Cl)[C@H]1O` [VANCOMYCIN], the ED99 with Staphylococcus aureus [1] is 0.17 mg/kg.

In the case of `CO/C(C)=C1/NC(=O)[C@H]([C@@H](C)O)NC(=O)c2csc(n2)-c2cc(O)c(-c3nc(CNC(=O)CN(C)C)cs3)nc2-c2csc(n2)[C@@H]2COC(=O)c3c4c5c(cccc5n3O)COC(=O)[C@@H](O[C@H]3C[C@](C)(O)[C@H](N(C)C)[C@H](C)O3)[C@@H](OC4)[C@H](NC(=O)c3csc1n3)c1nc(cs1)C(=O)N2`, the ED99 in the data set with Staphylococcus aureus [1] is above 0.5 mg/kg. For the same compound, the results for the MIC with Enterococcus faecalis, in the data set on Streptococcus pneumoniae and in the data set with Staphylococcus aureus [3] were 0.25 µg/mL (≈ 0.174 µM), 0.0075 µg/mL (≈ 0.00521 µM) and 0.06 µg/mL (≈ 0.0417 µM), respectively.

Take `CO/C(C)=C1/NC(=O)[C@H]([C@@H](C)O)NC(=O)c2csc(n2)-c2cc(O)c(-c3nc(CNC(=O)C(C)NC(N)=O)cs3)nc2-c2csc(n2)[C@@H]2COC(=O)c3c4c5c(cccc5n3O)COC(=O)[C@@H](O[C@H]3C[C@](C)(O)[C@H](N(C)C)[C@H](C)O3)[C@@H](OC4)[C@H](NC(=O)c3csc1n3)c1nc(cs1)C(=O)N2` (stereo not given in full): the ED99 in the data set on Staphylococcus aureus [1] worked out at 0.02 mg/kg. Moreover, the results for the MIC in the data set on Enterococcus faecalis, with Streptococcus pneumoniae and in the data set with Staphylococcus aureus [3] were 0.25 µg/mL (≈ 0.17 µM), 0.0038 µg/mL (≈ 0.00259 µM) and 0.06 µg/mL (≈ 0.0409 µM), respectively. In the data set on Staphylococcus aureus [4], the Ratio was determined as 200.

In general, solubility refers to the concentration that dissolves in the medium under given conditions. A high value points to much dissolved substance. The compound `CO/C(C)=C1/NC(=O)[C@H]([C@@H](C)O)NC(=O)c2csc(n2)-c2cc(O)c(-c3nc(CNC(=O)CN4CCOCC4)cs3)nc2-c2csc(n2)[C@@H]2COC(=O)c3c4c5c(cccc5n3O)COC(=O)[C@@H](O[C@H]3C[C@](C)(O)[C@H](N(C)C)[C@H](C)O3)[C@@H](OC4)[C@H](NC(=O)c3csc1n3)c1nc(cs1)C(=O)N2.O=C(O)C(F)(F)F` returned a solubility in data set [5] above 10000 µg/mL.
